Test results published in patent publication US20260117203A1, “MUTANT KETOREDUCTASE WITH INCREASED KETOREDUCTASE ACTIVITY AS WELL AS METHODS AND USES INVOLVING THE SAME” (Hoffmann-La Roche Inc., priority 2023, published 2026).
Substitutions are numbered along the chain they refer to.

Columns and labels:
Assay type in all cases: biochemical
[1] = molecular target: T1, Sporidiobolus salmonicolor ketoreductase variant E00158, Trp97_Lys238_Met241_Trp242_Ser245_Met316_Met342, SEQ ID NO: 6, His-tag (Sporobolomyces salmonicolor, UniProt Q9UUN9, A238K/F97W/L241M/L316M/M242W/Q245S/T342M); assay: Kinetic characterization (app. KM, app. kcat), Table 9c, variant E00158; settings: E00158, relative to WT = 1
T1 sequence (Q9UUN9 1-343 F97W/A238K/L241M/M242W/Q245S/L316M/T342M): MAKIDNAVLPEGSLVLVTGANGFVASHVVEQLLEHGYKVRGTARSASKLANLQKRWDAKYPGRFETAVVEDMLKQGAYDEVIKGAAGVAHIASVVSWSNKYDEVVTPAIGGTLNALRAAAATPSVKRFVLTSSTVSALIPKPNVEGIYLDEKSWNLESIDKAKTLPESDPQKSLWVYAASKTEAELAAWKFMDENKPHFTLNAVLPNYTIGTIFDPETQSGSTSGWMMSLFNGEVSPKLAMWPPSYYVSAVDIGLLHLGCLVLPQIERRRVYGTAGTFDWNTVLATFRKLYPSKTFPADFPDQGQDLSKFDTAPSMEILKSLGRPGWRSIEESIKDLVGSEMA

[2] = molecular target: T2, Sporidiobolus salmonicolor ketoreductase variant E00144, Trp97_Met241_Trp242_Ser245_Met316_Met342, SEQ ID NO: 3, His-tag (Sporobolomyces salmonicolor, UniProt Q9UUN9, F97W/L241M/L316M/M242W/Q245S/T342M); assay: Kinetic characterization (app. KM, app. kcat), Table 9c, variant E00144; settings: E00144, relative to WT = 1
T2 sequence (Q9UUN9 1-343 F97W/L241M/M242W/Q245S/L316M/T342M): T1 sequence (Q9UUN9 1-343 F97W/A238K/L241M/M242W/Q245S/L316M/T342M) with K238A

[3] = molecular target: T3, Sporidiobolus salmonicolor ketoreductase variant E00174, Trp97_Lys238_Met241_Trp242_Ser245_Gly246_Met316_Met342, SEQ ID NO: 7, His-tag (Sporobolomyces salmonicolor, UniProt Q9UUN9, A238K/F97W/L241M/L316M/M242W/Q245S/T342M/Y246G); assay: Kinetic characterization (app. KM, app. kcat), Table 9c, variant E00174
T3 sequence (Q9UUN9 1-343 F97W/A238K/L241M/M242W/Q245S/Y246G/L316M/T342M): T1 sequence (Q9UUN9 1-343 F97W/A238K/L241M/M242W/Q245S/L316M/T342M) with Y246G

[4] = molecular target: T4, Sporidiobolus salmonicolor ketoreductase, wild type (WT), UniProt Q9UUN9, SEQ ID NO: 1 (Sporobolomyces salmonicolor, UniProt Q9UUN9); assay: Kinetic characterization (app. KM, app. kcat), Table 9c, wild type; settings: reference = 1
T4 sequence (Q9UUN9 1-343): T1 sequence (Q9UUN9 1-343 F97W/A238K/L241M/M242W/Q245S/L316M/T342M) with W97F, K238A, M241L, W242M, S245Q, M316L, M342T

[5] = molecular target: T5, Sporidiobolus salmonicolor ketoreductase variant E00184, Trp97_Ala224_Lys238_Met241_Trp242_Ser245_Gly246_Met316_Met342, SEQ ID NO: 8, His-tag (Sporobolomyces salmonicolor, UniProt Q9UUN9, A238K/F97W/L241M/L316M/M242W/Q245S/S224A/T342M/Y246G); assay: Kinetic characterization (app. KM, app. kcat), Table 9c, variant E00184 (first line); settings: relative to WT = 1
T5 sequence (Q9UUN9 1-343 F97W/S224A/A238K/L241M/M242W/Q245S/Y246G/L316M/T342M): T1 sequence (Q9UUN9 1-343 F97W/A238K/L241M/M242W/Q245S/L316M/T342M) with S224A, Y246G

[6] = molecular target: T6, Sporidiobolus salmonicolor ketoreductase variant E00128, Trp97_Met241_Trp242_Ser245, SEQ ID NO: 2, His-tag (Sporobolomyces salmonicolor, UniProt Q9UUN9, F97W/L241M/M242W/Q245S); assay: Kinetic characterization (app. KM, app. kcat), Table 9c, variant E00128; settings: E00128, relative to WT = 1
T6 sequence (Q9UUN9 1-343 F97W/L241M/M242W/Q245S): T1 sequence (Q9UUN9 1-343 F97W/A238K/L241M/M242W/Q245S/L316M/T342M) with K238A, M316L, M342T

[7] = molecular target: T7, Sporidiobolus salmonicolor ketoreductase variant E00184 (second line so labelled); in Table 9b W97 V134 A224 K238 M241 W242 S245 G246 M316 M342, the mutations of (Sporobolomyces salmonicolor, UniProt Q9UUN9, A238K/F97W/L241M/L316M/M242W/Q245S/S224A/T134V/T342M/Y246G); assay: Kinetic characterization (app. KM, app. kcat), Table 9c, variant E00184 (second line); settings: relative to WT = 1
T7 construct: second row labelled E00184, evidently E00185
T7 sequence (Q9UUN9 1-343 F97W/T134V/S224A/A238K/L241M/M242W/Q245S/Y246G/L316M/T342M): T1 sequence (Q9UUN9 1-343 F97W/A238K/L241M/M242W/Q245S/L316M/T342M) with T134V, S224A, Y246G

## C[C@@H]1CC(=O)c2ncnc(N3CCN(C(=O)OC(C)(C)C)CC3)c21 [ketone of formula Ib]
[1]
  rel. kcat: 31
[2]
  rel. kcat: 13
[3]; relative to WT = 1, substrate saturation not reached
  rel. kcat: 94
[3]; substrate saturation not reached
  app. kcat: 45.8 ± 2.4 min−^1
[4]
  rel. kcat: 1
[5]
  rel. kcat: 43
[6]
  rel. kcat: 12
[7]
  rel. kcat: 64
